How the values were obtained:
Assay type in all cases: in vivo
[1] = system: apomorphineinduced gnawing behaviour; assay: Inhibition of apomorphine-induced gnawing behaviour in the rat; conditions: oral, approximate ED50, read-out: Anti-apomorphine: approximate oral ED50 value for inhibition of apomorphineinduced gnawing behaviour
Excerpt: (§1) Standard pharmaceutical tests have been run with mice and rats using compounds of this invention. The instant compounds have been compared with Clebopride hydrochloride, i.e., N-(1-benzylpiperid-4-yl)-2-methoxy-4-amino-5-chlorobenzamide hydrochloride, which is disclosed in co-pending U.S. patent application Ser. No. 558,908 filed Mar. 17, 1975, incorporated herein by reference.
^(b) Approximate oral ED50 value for inhibition of
apomorphineinduced gnawing behaviour in the rat.

food intake (spaghetti) = assay: Anorexia: inhibition of food intake (spaghetti) in screening test in the mouse; conditions: 10 mg kg^-1 p.os.
Method: as §1
^(c) Percentage inhibition of food intake (spaghetti) in screening
test at 10 mg kg^-1 p.os. in the mouse.

stomach emptying = assay: Stomach emptying in the rat; conditions: 0.3, 1.0 or 3.0 mg kg^-1 i.p.
Excerpt: as §1
^(d) Active at 0.3 (+++), 1.0 (++) or 3.0 (+) mg kg^-1 i.p. in
causing significant stomach emptying in the rat.

| Compound | ED50 [1] | Anorexia: percentage inhibition of food intake (spaghetti) (food intake (spaghetti)) | Stomach emptying (stomach emptying) |
| --- | --- | --- | --- |
| COc1cc(N)c(Cl)cc1C(=O)NC1CCN(Cc2ccccc2)CC1.Cl [Clebopride hydrochloride, N-(1-benzylpiperid-4-yl)-2-methoxy-4-amino-5-chlorobenzamide hydrochloride, reference compound] | 2.5 mg/kg | 84% | – |
| COc1cc(N)c(Cl)cc1C(=O)NC1CCN(Cc2ccccc2)CC1C (stereo not shown) [R5'=3-Me; R7'=H, N-(1-benzyl-3-methylpiperid-4-yl)-2-methoxy-4-amino-5-chlorobenzamide] | 58 mg/kg | 34% | – |
| COc1cc(N)c(Cl)cc1C(=O)N(C)C1CCN(Cc2ccccc2)CC1.Cl [R3'=H; R7'=CH3, N-methyl-N-(1-benzylpiperid-4-yl)-2-methoxy-4-amino-5-chlorobenzamide hydrochloride] | > 300 mg/kg | 0% | – |
| COc1cc(N)c(Cl)cc1C(=O)NC1CC(C)N(Cc2ccccc2)C(C)C1 (stereo not shown) [R5'=2-Me; R6'=6-Me; R7'=H, N-(1-benzyl-2,6-dimethylpiperid-4-yl)-2-methoxy-4-amino-5-chlorobenzamide] | ~100 mg/kg | 89% | – |
| COc1cc(N)c(Cl)cc1C(=O)N(C)C1CCN(C(C)c2ccccc2)CC1 (stereo not shown) [R3'=CH3; R7'=CH3, N-methyl-N-[1-(1-phenylethyl)piperid-4-yl]-2-methoxy-4-amino-5-chlorobenzamide] | > 300 mg/kg | 0% | 0 |
| CCN(C(=O)c1cc(Cl)c(N)cc1OC)C1CCN(Cc2ccccc2)CC1.Cl [R3'=H; R7'=C2H5, N-ethyl-N-(1-benzylpiperid-4-yl)-2-methoxy-4-amino-5-chlorobenzamide hydrochloride] | ~300 mg/kg | 0% | – |

From patent US4367232A, “Piperidine derivatives” (Fordonal, S.A., priority 1976, dated 1983)
